PubChem BioAssay (NCI)
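1) Cells in 96-well plates. 2) Compound, 48 h, 5 concentrations. 3) Linear interpolation between surrounding doses. 4) Unreached endpoint = highest concentration. TGI: total growth inhibition.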

Key:
Experiment in all cases: DTP human tumour cell line panel, 48 h
[1] = test system: 786-0 renal
[2] = test system: A498 renal
[3] = test system: ACHN renal
[4] = test system: BT-549 breast
[5] = test system: CAKI-1 renal
[6] = test system: COLO 205 colon
[7] = test system: DU-145 prostate
[8] = test system: EKVX NSCLC
[9] = test system: HCC-2998 colon
[10] = test system: HCT-116 colon
[11] = test system: HCT-15 colon
[12] = test system: HL-60(TB) leukemia
[13] = test system: HOP-62 NSCLC
[14] = test system: HS 578T breast
[15] = test system: HT29 colon
[16] = test system: IGROV1 ovarian
[17] = test system: K-562 leukemia
[18] = test system: KM12 colon
[19] = test system: LOX IMVI melanoma
[20] = test system: MALME-3M melanoma
[21] = test system: MCF7 breast
[22] = test system: MDA-MB-231 breast
[23] = test system: MDA-MB-435
[24] = test system: MDA-N
[25] = test system: MOLT-4 leukemia
[26] = test system: NCI-H226 lung
[27] = test system: NCI-H23 lung
[28] = test system: NCI-H460 lung
[29] = test system: NCI-H522 lung
[30] = test system: NCI/ADR-RES ovarian
[31] = test system: OVCAR-3 ovarian
[32] = test system: OVCAR-4 ovarian
[33] = test system: OVCAR-5 ovarian
[34] = test system: OVCAR-8 ovarian
[35] = test system: PC-3 prostate
[36] = test system: RXF 393 renal
[37] = test system: SF-268 CNS
[38] = test system: SF-295 CNS
[39] = test system: SK-MEL-2 melanoma
[40] = test system: SK-MEL-28 melanoma
[41] = test system: SK-MEL-5 melanoma
[42] = test system: SN12C renal
[43] = test system: SNB-19 CNS
[44] = test system: SNB-75 CNS
[45] = test system: SW-620 colon
[46] = test system: TK-10 renal
[47] = test system: U251 CNS
[48] = test system: UACC-257 melanoma
[49] = test system: UACC-62 melanoma
[50] = test system: UO-31 renal
[51] = test system: A549 NSCLC
[52] = test system: CCRF-CEM leukemia
[53] = test system: HOP-92 NSCLC
[54] = test system: M14 melanoma
[55] = test system: RPMI-8226 leukemia
[56] = test system: SF-539 CNS
[57] = test system: SK-OV-3 ovarian
[58] = test system: T-47D breast

Measured: TGI

NC1=NC(=O)[C@H](Cc2c[nH]c3ccccc23)N1C(=O)OCc1ccccc1
not listed: [51] | [52] | [53] | [54] | [55] | [56] | [57] | [58]
> 100 µM: all other assays above

C[C@H]1[C@H](N2CCCC2)O[Si](C(C)(C)C)(C(C)(C)C)[C@@H]1C
4.7 µM: [53]
48.5 µM: [12]
not listed: [7] | [14] | [28] | [36] | [37]
> 100 µM: all other assays above

Cc1ccc(C(=O)N/N=C(\N=Nc2cccc([N+](=O)[O-])c2)c2ccc(N(C)C)cc2)cc1
85.5 µM: [7]
not listed: [2] | [3] | [13] | [20] | [36] | [44] | [49] | [57] | [58]
> 100 µM: all other assays above
